Results as given in publication PMC11864979, “First-in-class ultralong-target-residence-time p38α inhibitors as a mitosis-targeted therapy for colorectal cancer” (Nature Cancer, 2025).
Like-named read-outs stand apart in the source and are kept apart here.

Experiments:
Experiment in all cases: selectivity profiling in a panel of 340 wild-type kinases (Reaction Biology Europe)
Assay type in all cases: binding
340 wild-type kinases [1] = biological target: T1, 340 wild-type kinases (Homo sapiens, UniProt O43781)
T1 construct: purchased Reaction Biology Europe
T1 sequence (O43781 1-588): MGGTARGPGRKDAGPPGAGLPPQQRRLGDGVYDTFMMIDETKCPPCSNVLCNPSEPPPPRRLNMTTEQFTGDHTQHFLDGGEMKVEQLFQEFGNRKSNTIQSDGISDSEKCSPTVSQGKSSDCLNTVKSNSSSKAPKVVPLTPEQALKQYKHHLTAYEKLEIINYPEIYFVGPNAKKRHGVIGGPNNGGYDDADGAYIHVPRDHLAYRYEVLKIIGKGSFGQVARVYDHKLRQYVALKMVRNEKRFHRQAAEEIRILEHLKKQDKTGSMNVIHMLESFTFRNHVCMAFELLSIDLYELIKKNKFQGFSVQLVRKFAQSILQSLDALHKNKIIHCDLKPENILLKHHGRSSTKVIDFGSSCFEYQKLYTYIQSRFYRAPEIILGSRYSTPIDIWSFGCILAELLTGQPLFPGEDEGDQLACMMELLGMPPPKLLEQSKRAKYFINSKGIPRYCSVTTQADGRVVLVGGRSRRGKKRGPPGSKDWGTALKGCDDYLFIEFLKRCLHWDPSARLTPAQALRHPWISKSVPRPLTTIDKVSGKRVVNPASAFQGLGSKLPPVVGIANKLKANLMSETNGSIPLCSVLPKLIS

340 wild-type kinases [2] = biological target: T2, 340 wild-type kinases (Homo sapiens, UniProt O75716)
T2 construct: purchased Reaction Biology Europe

340 wild-type kinases [3] = biological target: T3, 340 wild-type kinases (Homo sapiens, UniProt P06241)
T3 construct: purchased Reaction Biology Europe

340 wild-type kinases [4] = biological target: T4, 340 wild-type kinases (Homo sapiens, UniProt P14616)
T4 construct: purchased Reaction Biology Europe

340 wild-type kinases [5] = biological target: T5, 340 wild-type kinases (Homo sapiens, UniProt P17612)
T5 construct: purchased Reaction Biology Europe

340 wild-type kinases [6] = biological target: T6, 340 wild-type kinases (Homo sapiens, UniProt P35626)
T6 construct: purchased Reaction Biology Europe
T6 sequence (P35626 1-688): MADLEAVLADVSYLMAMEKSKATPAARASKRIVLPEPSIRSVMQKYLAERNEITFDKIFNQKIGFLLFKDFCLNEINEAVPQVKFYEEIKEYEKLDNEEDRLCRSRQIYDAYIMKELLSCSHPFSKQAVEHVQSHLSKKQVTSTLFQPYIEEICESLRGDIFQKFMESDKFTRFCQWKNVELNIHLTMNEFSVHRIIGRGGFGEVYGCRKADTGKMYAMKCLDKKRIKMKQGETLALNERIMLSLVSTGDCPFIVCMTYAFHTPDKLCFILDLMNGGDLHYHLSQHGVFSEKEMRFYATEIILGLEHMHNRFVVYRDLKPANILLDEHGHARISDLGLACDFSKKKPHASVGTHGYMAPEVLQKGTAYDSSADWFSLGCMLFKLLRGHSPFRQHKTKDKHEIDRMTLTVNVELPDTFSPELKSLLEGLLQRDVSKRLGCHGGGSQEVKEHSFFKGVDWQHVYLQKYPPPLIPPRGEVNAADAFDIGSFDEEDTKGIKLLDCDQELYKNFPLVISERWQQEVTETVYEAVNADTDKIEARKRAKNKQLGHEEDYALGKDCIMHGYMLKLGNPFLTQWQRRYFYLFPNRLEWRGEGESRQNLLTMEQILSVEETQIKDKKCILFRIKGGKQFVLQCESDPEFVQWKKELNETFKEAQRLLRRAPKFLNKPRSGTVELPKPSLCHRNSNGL

340 wild-type kinases [7] = biological target: T7, 340 wild-type kinases (Homo sapiens, UniProt P45983)
T7 construct: purchased Reaction Biology Europe

340 wild-type kinases [8] = biological target: T8, 340 wild-type kinases (Homo sapiens, UniProt P53778)
T8 construct: purchased Reaction Biology Europe
T8 sequence (P53778 1-367): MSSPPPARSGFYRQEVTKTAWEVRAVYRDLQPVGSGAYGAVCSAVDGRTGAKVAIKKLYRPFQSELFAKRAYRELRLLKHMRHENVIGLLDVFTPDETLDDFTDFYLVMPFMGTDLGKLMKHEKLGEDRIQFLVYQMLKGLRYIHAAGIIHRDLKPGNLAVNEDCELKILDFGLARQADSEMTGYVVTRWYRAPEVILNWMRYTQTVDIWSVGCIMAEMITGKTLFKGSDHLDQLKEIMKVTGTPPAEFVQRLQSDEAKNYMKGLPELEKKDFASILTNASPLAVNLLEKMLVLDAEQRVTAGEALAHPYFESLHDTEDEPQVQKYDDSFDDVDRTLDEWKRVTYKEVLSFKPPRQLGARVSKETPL

340 wild-type kinases [9] = biological target: T9, 340 wild-type kinases (Homo sapiens, UniProt P78368)
T9 construct: purchased Reaction Biology Europe

340 wild-type kinases [10] = biological target: T10, 340 wild-type kinases (Homo sapiens, UniProt Q13464)
T10 construct: purchased Reaction Biology Europe

340 wild-type kinases [11] = biological target: T11, 340 wild-type kinases (Homo sapiens, UniProt Q9H4B4)
T11 construct: purchased Reaction Biology Europe
T11 sequence (Q9H4B4 whole entry): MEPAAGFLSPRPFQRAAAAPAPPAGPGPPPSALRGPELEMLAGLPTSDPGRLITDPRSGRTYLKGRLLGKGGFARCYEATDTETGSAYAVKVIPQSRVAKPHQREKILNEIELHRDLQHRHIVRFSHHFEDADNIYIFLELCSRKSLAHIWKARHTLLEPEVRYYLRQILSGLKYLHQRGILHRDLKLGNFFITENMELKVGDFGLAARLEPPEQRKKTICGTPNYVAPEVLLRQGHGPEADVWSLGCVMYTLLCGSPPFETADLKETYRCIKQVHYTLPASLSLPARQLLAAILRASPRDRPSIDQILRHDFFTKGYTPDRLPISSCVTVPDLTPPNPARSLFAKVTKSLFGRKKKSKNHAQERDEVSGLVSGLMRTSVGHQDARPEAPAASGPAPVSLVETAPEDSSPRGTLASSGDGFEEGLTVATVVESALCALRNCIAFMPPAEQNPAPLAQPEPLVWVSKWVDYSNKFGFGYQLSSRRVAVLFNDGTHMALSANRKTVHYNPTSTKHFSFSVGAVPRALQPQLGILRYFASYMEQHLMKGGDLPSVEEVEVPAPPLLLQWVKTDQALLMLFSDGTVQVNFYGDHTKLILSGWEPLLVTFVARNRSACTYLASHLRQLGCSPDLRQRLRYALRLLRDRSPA

T7 sequence (P45983 whole entry): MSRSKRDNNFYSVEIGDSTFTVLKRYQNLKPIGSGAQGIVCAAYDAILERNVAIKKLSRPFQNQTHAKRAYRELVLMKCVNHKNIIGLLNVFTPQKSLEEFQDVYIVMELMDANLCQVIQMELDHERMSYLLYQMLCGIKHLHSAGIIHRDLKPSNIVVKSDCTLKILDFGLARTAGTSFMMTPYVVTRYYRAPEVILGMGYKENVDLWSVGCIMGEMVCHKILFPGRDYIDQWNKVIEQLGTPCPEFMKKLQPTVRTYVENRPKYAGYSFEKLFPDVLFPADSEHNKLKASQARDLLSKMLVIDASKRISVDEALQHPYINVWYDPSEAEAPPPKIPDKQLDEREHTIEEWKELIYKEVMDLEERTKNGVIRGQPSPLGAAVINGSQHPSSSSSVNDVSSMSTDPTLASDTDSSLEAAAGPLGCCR
T10 sequence (Q13464 whole entry): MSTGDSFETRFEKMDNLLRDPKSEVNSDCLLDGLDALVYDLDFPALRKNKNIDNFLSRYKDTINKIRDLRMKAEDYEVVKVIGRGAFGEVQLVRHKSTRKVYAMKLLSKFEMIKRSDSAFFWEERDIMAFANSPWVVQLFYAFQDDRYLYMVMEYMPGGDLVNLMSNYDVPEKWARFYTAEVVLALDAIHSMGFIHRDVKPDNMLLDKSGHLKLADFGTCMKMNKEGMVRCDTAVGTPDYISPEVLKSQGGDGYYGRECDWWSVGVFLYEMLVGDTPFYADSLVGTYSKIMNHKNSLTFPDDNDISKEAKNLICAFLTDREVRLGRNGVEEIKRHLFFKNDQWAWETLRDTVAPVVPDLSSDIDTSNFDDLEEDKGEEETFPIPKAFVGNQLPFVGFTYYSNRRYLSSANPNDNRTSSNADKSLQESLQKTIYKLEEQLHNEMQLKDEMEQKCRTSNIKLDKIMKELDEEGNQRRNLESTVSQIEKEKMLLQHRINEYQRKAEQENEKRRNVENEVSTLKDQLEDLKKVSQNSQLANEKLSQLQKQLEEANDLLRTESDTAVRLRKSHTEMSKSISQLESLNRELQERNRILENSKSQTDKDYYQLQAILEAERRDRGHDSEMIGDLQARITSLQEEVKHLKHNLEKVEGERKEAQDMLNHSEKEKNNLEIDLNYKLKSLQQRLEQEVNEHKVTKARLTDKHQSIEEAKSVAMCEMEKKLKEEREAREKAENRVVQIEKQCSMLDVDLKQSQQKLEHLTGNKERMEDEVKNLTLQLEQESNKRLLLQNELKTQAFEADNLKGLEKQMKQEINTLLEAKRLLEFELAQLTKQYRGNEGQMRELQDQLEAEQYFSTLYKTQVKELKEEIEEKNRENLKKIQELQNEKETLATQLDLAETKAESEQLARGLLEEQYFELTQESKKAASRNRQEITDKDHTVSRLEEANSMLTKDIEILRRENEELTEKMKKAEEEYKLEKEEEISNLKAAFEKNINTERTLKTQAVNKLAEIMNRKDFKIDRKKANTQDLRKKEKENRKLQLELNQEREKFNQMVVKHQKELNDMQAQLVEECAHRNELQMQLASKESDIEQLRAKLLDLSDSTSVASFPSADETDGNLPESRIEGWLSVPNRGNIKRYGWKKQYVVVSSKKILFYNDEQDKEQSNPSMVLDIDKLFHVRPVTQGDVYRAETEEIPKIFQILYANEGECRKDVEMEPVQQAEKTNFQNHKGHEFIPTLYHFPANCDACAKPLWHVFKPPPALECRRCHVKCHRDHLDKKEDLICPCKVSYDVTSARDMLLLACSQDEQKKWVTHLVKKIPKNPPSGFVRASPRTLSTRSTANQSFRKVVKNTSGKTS
T4 sequence (P14616 27-1297): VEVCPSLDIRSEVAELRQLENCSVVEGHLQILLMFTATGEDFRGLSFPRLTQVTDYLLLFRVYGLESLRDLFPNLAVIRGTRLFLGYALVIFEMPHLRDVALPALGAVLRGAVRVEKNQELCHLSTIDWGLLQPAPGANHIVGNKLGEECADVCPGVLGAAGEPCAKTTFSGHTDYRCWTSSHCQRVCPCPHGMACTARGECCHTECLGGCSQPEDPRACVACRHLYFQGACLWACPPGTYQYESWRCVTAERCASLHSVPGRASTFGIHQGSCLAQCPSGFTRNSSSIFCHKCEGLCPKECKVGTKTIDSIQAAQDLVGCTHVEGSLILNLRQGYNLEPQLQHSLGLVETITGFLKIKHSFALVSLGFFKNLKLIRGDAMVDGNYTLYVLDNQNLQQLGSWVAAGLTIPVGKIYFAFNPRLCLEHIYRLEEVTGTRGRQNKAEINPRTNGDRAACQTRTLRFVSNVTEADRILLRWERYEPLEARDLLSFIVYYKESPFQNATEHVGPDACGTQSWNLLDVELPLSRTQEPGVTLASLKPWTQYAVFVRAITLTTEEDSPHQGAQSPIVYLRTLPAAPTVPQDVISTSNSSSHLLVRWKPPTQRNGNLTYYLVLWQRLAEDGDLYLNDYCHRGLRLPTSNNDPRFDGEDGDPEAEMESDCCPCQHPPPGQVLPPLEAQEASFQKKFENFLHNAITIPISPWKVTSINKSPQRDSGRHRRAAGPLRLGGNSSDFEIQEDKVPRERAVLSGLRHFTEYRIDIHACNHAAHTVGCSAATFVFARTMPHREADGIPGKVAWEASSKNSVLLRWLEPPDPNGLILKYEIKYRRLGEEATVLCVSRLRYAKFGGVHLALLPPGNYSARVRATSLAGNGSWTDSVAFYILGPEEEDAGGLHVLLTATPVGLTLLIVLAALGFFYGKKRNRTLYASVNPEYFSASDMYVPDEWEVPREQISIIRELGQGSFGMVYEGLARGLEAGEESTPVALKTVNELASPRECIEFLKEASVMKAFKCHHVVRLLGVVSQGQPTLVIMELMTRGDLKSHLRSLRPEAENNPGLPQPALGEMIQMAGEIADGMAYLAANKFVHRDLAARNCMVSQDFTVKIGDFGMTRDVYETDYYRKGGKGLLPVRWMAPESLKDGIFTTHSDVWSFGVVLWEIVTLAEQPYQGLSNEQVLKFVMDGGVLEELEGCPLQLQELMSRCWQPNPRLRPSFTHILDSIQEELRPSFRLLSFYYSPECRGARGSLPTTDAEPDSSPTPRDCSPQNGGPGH
T3 sequence (P06241 whole entry): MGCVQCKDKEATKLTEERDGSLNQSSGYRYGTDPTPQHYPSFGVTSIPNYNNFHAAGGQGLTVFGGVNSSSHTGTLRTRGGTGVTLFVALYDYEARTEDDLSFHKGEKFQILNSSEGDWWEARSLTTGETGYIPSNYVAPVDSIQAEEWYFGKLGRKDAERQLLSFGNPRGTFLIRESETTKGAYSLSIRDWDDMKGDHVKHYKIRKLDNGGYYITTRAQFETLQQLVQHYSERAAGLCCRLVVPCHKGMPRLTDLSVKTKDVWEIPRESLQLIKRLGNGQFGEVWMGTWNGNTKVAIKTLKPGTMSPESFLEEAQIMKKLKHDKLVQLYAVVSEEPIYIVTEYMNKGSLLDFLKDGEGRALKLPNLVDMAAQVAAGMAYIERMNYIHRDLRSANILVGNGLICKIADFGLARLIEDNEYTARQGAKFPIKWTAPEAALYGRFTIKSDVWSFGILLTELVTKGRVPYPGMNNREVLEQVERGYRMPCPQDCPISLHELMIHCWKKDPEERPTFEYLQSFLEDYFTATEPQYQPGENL
T9 sequence (P78368 whole entry): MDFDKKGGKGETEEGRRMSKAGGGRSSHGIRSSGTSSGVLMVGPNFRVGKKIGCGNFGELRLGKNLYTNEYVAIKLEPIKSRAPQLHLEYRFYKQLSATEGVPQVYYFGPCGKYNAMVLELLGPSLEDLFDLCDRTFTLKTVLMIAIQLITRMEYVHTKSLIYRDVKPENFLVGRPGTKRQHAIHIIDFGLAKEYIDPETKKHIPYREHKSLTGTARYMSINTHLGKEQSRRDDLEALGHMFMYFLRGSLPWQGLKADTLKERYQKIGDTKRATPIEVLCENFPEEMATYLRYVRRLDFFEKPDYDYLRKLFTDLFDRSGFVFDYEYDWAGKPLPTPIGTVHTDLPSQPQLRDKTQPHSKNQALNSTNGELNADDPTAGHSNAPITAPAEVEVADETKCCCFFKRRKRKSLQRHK
T2 sequence (O75716 whole entry): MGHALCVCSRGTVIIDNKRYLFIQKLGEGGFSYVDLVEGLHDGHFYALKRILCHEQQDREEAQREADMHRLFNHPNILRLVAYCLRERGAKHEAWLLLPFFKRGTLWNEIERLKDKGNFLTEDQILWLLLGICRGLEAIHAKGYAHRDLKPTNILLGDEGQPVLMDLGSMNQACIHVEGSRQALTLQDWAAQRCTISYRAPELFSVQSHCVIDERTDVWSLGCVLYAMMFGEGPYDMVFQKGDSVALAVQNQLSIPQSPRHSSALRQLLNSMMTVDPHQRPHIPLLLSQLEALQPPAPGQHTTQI

SMILES: CNC(=O)c1ccc2c(c1)C(=O)c1ccc(Nc3ccc(F)c(NC(=O)C4CC4)c3)cc1CC2 [Compound 2015]
- remaining activity at 0.2 µM (340 wild-type kinases [1]; 0.2 µM 2015, read-out: DYRK3 residual activity): 104%
- remaining activity at 1 µM (340 wild-type kinases [1]; 1 µM 2015, read-out: DYRK3 residual activity): 107%
- remaining activity at 0.2 µM (340 wild-type kinases [1]; DYRK3, 0.2 µM, read-out: residual activity): 104%
- remaining activity at 1 µM (340 wild-type kinases [1]; DYRK3, 1 µM, read-out: residual activity): 107%
- remaining activity at 0.2 µM (340 wild-type kinases [2]; 0.2 µM 2015, read-out: TSF1 residual activity): 95.7%
- remaining activity at 1 µM (340 wild-type kinases [2]; 1 µM 2015, read-out: TSF1 residual activity): 85.7%
- remaining activity at 0.2 µM (340 wild-type kinases [2]; TSF1, 0.2 µM, read-out: residual activity): 95.7%
- remaining activity at 1 µM (340 wild-type kinases [2]; TSF1, 1 µM, read-out: residual activity): 85.7%
- remaining activity at 0.2 µM (340 wild-type kinases [3]; 0.2 µM 2015, read-out: FYN residual activity): 119%
- remaining activity at 1 µM (340 wild-type kinases [3]; 1 µM 2015, read-out: FYN residual activity): 101%
- remaining activity at 0.2 µM (340 wild-type kinases [3]; FYN, 0.2 µM, read-out: residual activity): 119%
- remaining activity at 1 µM (340 wild-type kinases [3]; FYN, 1 µM, read-out: residual activity): 101%
- remaining activity at 0.2 µM (340 wild-type kinases [4]; 0.2 µM 2015, read-out: INSRR residual activity): 96%
- remaining activity at 1 µM (340 wild-type kinases [4]; 1 µM 2015, read-out: INSRR residual activity): 97.4%
- remaining activity at 0.2 µM (340 wild-type kinases [4]; INSRR, 0.2 µM, read-out: residual activity): 96%
- remaining activity at 1 µM (340 wild-type kinases [4]; INSRR, 1 µM, read-out: residual activity): 97.4%
- remaining activity at 0.2 µM (340 wild-type kinases [5]; 0.2 µM 2015, read-out: PKA residual activity): 124%
- remaining activity at 1 µM (340 wild-type kinases [5]; 1 µM 2015, read-out: PKA residual activity): 97.7%
- remaining activity at 0.2 µM (340 wild-type kinases [5]; PKA, 0.2 µM, read-out: residual activity): 124%
- remaining activity at 1 µM (340 wild-type kinases [5]; PKA, 1 µM, read-out: residual activity): 97.8%
- remaining activity at 0.2 µM (340 wild-type kinases [6]; 0.2 µM 2015, read-out: GRK3 residual activity): 117%
- remaining activity at 1 µM (340 wild-type kinases [6]; 1 µM 2015, read-out: GRK3 residual activity): 99.7%
- remaining activity at 0.2 µM (340 wild-type kinases [6]; GRK3, 0.2 µM, read-out: residual activity): 117%
- remaining activity at 1 µM (340 wild-type kinases [6]; GRK3, 1 µM, read-out: residual activity): 99.7%
- remaining activity at 0.2 µM (340 wild-type kinases [7]; 0.2 µM 2015, read-out: JNK1 residual activity): 107%
- remaining activity at 1 µM (340 wild-type kinases [7]; 1 µM 2015, read-out: JNK1 residual activity): 94.2%
- remaining activity at 0.2 µM (340 wild-type kinases [7]; JNK1, 0.2 µM, read-out: residual activity): 107%
- remaining activity at 1 µM (340 wild-type kinases [7]; JNK1, 1 µM, read-out: residual activity): 94.2%
- remaining activity at 0.2 µM (340 wild-type kinases [8]; 0.2 µM 2015, read-out: p38gamma residual activity): 83.5%
- remaining activity at 1 µM (340 wild-type kinases [8]; 1 µM 2015, read-out: p38gamma residual activity): 77.7%
- remaining activity at 0.2 µM (340 wild-type kinases [8]; p38gamma, 0.2 µM, read-out: residual activity): 83.5%
- remaining activity at 1 µM (340 wild-type kinases [8]; p38gamma, 1 µM, read-out: residual activity): 77.7%
- remaining activity at 0.2 µM (340 wild-type kinases [9]; 0.2 µM 2015, read-out: CK1gamma2 residual activity): 111%
- remaining activity at 1 µM (340 wild-type kinases [9]; 1 µM 2015, read-out: CK1gamma2 residual activity): 113%
- remaining activity at 0.2 µM (340 wild-type kinases [9]; CK1gamma2, 0.2 µM, read-out: residual activity): 111%
- remaining activity at 1 µM (340 wild-type kinases [9]; CK1gamma2, 1 µM, read-out: residual activity): 113%
- remaining activity at 0.2 µM (340 wild-type kinases [10]; 0.2 µM 2015, read-out: ROCK1 residual activity): 95.1%
- remaining activity at 1 µM (340 wild-type kinases [10]; 1 µM 2015, read-out: ROCK1 residual activity): 87.2%
- remaining activity at 0.2 µM (340 wild-type kinases [10]; ROCK1, 0.2 µM, read-out: residual activity): 95.1%
- remaining activity at 1 µM (340 wild-type kinases [10]; ROCK1, 1 µM, read-out: residual activity): 87.2%
- remaining activity at 0.2 µM (340 wild-type kinases [11]; 0.2 µM 2015, read-out: PLK3 residual activity): 101%
- remaining activity at 1 µM (340 wild-type kinases [11]; 1 µM 2015, read-out: PLK3 residual activity): 134%
- remaining activity at 0.2 µM (340 wild-type kinases [11]; PLK3, 0.2 µM, read-out: residual activity): 101%
- remaining activity at 1 µM (340 wild-type kinases [11]; PLK3, 1 µM, read-out: residual activity): 134%
